Laboratory results published in ChEMBL document CHEMBL5390210, “Discovery of novel indazole derivatives as SOS1 agonists that activate KRAS signaling” (Bioorg Med Chem, 2023).
The source made the active and inactive calls. The calls are words filed in the database; no cut-off is given here.

Key:
[1] = molecular target: T1, Son of sevenless homolog 1 (Homo sapiens) (UniProt Q07889); assay: Agonist activity at SOS1 in human HeLa cells expressing wild type KRAS assessed as increase in p-ERK1/2 level at T202/Y204 residue at 0 to 12.5 uM incubated for 30 mins by Western blot analysis; assay type: cell-based; details: filed as agonist, dose 0-12.5 µM
T1 sequence (whole entry): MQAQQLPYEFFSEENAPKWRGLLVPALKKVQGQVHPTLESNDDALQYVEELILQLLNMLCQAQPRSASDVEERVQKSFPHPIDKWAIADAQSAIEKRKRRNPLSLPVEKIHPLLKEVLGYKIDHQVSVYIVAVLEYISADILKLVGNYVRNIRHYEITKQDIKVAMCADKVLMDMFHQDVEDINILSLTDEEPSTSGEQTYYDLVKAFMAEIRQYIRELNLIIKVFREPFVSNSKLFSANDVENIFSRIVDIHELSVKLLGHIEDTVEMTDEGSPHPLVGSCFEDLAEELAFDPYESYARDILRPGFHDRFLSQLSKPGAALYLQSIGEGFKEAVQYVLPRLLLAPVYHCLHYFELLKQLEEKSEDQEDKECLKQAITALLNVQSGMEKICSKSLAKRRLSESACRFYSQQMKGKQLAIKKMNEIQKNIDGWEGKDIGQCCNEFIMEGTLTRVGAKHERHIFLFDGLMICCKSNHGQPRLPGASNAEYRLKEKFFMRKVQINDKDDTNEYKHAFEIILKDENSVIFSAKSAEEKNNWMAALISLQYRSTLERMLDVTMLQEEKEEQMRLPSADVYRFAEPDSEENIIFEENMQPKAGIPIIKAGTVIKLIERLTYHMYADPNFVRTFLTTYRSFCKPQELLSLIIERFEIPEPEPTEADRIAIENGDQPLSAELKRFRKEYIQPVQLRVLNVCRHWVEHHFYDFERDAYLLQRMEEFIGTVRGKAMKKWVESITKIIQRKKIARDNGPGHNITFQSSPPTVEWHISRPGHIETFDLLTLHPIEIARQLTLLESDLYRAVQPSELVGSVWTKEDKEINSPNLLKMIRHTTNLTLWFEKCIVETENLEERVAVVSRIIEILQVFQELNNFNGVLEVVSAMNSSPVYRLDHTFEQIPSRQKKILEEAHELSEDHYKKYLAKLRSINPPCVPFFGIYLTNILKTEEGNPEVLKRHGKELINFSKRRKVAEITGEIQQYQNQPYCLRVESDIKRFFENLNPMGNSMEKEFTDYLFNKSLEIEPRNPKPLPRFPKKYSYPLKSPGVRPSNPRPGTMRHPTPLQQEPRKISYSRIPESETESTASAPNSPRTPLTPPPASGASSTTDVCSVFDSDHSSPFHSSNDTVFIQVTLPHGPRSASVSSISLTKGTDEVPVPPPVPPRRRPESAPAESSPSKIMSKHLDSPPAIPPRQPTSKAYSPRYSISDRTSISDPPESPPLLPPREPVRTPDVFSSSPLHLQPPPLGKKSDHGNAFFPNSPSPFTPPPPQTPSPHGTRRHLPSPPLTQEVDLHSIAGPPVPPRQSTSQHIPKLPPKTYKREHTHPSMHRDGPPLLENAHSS

[2] = molecular target: T1, Son of sevenless homolog 1 (Homo sapiens); assay: Agonist activity at SOS1 in human HeLa cells with siRNA-mediated SOS1 knockdown assessed as activation of p-ERK1/2 at <25 uM incubated for 30 mins by immunoblot analysis; assay type: cell-based
NCI-H358 [3] = assay: Antiproliferative activity against human NCI-H358 cells expressing KRAS G12C mutant assessed as inhibition of cell growth incubated for 72 hrs by CCK-8 assay; assay type: functional, cell-based; details: NCI-H358, 72 h
NCI-H358 [4] = assay: Binding affinity to Pan-Ras GTPase in human NCI-H358 cells expressing KRAS G12C mutant assessed as increase in thermal stability at 37 to 60 degreeC at 10 uM incubated for 1 hr by CETSA; assay type: cell-based
[5] = molecular target: T1, Son of sevenless homolog 1 (Homo sapiens); assay: Agonist activity at SOS1 in human HeLa cells assessed as activation of p-ERK1/2 at 3.1 to 25 uM incubated for 30 mins by immunoblot analysis; assay type: cell-based; details: filed as agonist, dose 3.1-25 µM
[6] = molecular target: T1, Son of sevenless homolog 1 (Homo sapiens); assay: Binding affinity to SOS1 in human HeLa cells expressing wild type KRAS assessed as increase in thermal stability at 37 to 52 degreeC at 10 uM incubated for 1 hr by CETSA; assay type: cell-based
HeLa [7] = assay: Antiproliferative activity against human HeLa cells expressing wild type KRAS assessed as inhibition of cell growth incubated for 72 hrs by CCK-8 assay; assay type: functional, cell-based
[8] = molecular target: T2, Son of sevenless homolog 1 (Homo sapiens, UniProt Q07889); assay: Agonist activity at SOS1 in human HeLa cells expressing wild type KRAS assessed as increase in p-ERK level incubated for 30 mins by Western blot analysis; assay type: cell-based
T2 sequence (Q07889 whole entry): T1 sequence (whole entry)

A549 = assay: Antiproliferative activity against human A549 cells expressing KRAS G12S mutant assessed as inhibition of cell growth incubated for 72 hrs by CCK-8 assay; assay type: functional, cell-based; details: A549, 72 h
[9] = molecular target: T1, Son of sevenless homolog 1 (Homo sapiens); assay: Agonist activity at SOS1 in human HeLa cells expressing wild type KRAS assessed as increase in p-ERK1/2 level at T202/Y204 residue over 25 uM incubated for 30 mins by Western blot analysis; assay type: cell-based
[10] = molecular target: T1, Son of sevenless homolog 1 (Homo sapiens); assay: Agonist activity at SOS1 in human HeLa cells expressing wild type KRAS assessed as increase in ERK1/2 phosphorylation by measuring increase in RAS-GTP level incubated for 30 mins by Western blot based pull down assay; assay type: cell-based; details: filed as agonist, dose 0-25 µM
HeLa [11] = assay: Binding affinity to Pan-Ras GTPase in human HeLa cells expressing wild type KRAS assessed as increase in thermal stability at 37 to 60 degreeC at 10 uM incubated for 1 hr by CETSA; assay type: cell-based
[12] = molecular target: T1, Son of sevenless homolog 1 (Homo sapiens); assay: Binding affinity to SOS1 in human NCI-H358 cells expressing KRAS G12C mutant assessed as increase in thermal stability at 37 to 52 degreeC at 10 uM incubated for 1 hr by CETSA; assay type: cell-based
NCI-H358 [13] = assay: Activation of RAS signaling pathway in human NCI-H358 cells expressing KRAS G12C mutant assessed as upregulation of p-ERK level incubated for 4 hrs by Western blot analysis; assay type: cell-based; details: filed as activator, dose 0-20 µM

Row | SMILES | EC50 [8] | also measured
1 | C=CC(=O)N1CC2(CC(n3nc(C(=O)Nc4ccc5c(cnn5C)c4)c4cc(-c5cn[nH]c5)ccc43)C2)C1 | 1.53 µM | Activity [1]: Active; Activity [2]: inactive; IC50 (NCI-H358 [3]): 6.04 µM; Activity (NCI-H358 [4]): inactive; Activity [5]: Active; Activity [6]: Active; IC50 (HeLa [7]): 9.19 µM; IC50 (A549): 9.61 µM; Activity [9]: inactive; Activity [10]: Active; Activity (HeLa [11]): inactive; Activity [12]: Active
2 | Cn1ncc2cc(-c3nn(C4CC5(CNC5)C4)c4ccc(-c5cn[nH]c5)cc34)ccc21 | > 20 µM | 
3 | C=CC(=O)N1CC2(CC(n3nc(C(=O)Nc4ccc5[nH]ncc5c4)c4cc(-c5cn[nH]c5)ccc43)C2)C1 | > 20 µM | 
4 | C=CC(=O)N1CC2(CC(n3nc(C(=O)N4CCCc5cc(OC)ccc54)c4ccccc43)C2)C1 | > 20 µM | 
5 | C=CC(=O)N1CC2(CC(n3nc(-c4ccc5c(cnn5C)c4)c4cc(-c5cn[nH]c5)ccc43)C2)C1 | 9.01 µM | 
6 | Cn1cc(-c2ccc3c(c2)c(-c2ccc4c(cnn4C)c2)nn3C2CC3(CNC3)C2)cn1 | > 20 µM | 
7 | C=CC(=O)N1CC2(CC(n3nc(C(=O)Nc4ccc5[nH]ncc5c4)c4ccccc43)C2)C1 | > 20 µM | 
8 | C=CC(=O)N1CC2(CC(n3nc(-c4ccc5c(cnn5C)c4)c4cc(-c5c[nH]nc5C)c(Cl)cc43)C2)C1 | 14.2 µM | Activity (NCI-H358 [13]): Dose-Dependent Effect
9 | Cn1ncc2cc(NC(=O)c3nn(C4CC5(CNC5)C4)c4ccc(-c5cn[nH]c5)cc34)ccc21 | > 20 µM | 
10 | C=CC(=O)N1CC2(CC(n3nc(C(=O)Nc4ccc5c(cnn5C)c4)c4ccccc43)C2)C1 | > 20 µM | 
11 | CCC(=O)N1CC2(CC(n3nc(C(=O)Nc4ccc5c(cnn5C)c4)c4cc(-c5cn[nH]c5)ccc43)C2)C1 | 4.37 µM | 
12 | C=CC(=O)N1CC2(CC(n3nc(C(=O)Nc4ccc5cnn(C)c5c4)c4cc(-c5cn[nH]c5)ccc43)C2)C1 | 5.45 µM | 
13 | C=CC(=O)N1CC2(CC(n3nc(C(=O)N4CCc5cc(OC)ccc5C4)c4ccccc43)C2)C1 | > 20 µM | 
